Legend:
[1] = tested on: rat CIA model; assay: Arthritis index (AI) of extremities in rat CIA model; conditions: CIA rats; for Arthritis index/Day: score 0-16;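 for all read-outs here: rats immunized with type II collagen plus complete Freund's adjuvant on day 0, boosted day 7, groups of 8, each paw graded 0-4 for swelling or redness, higher means worse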
Protocol: Lewis rats (female, 10-12 weeks old) were obtained from Beijing Vital River Laboratory Animal Technology Co., Ltd. The rats were on a light and dark alternation for 12 h, and the environment was kept at a temperature of 23±2° C. and a humidity of 40-70%.
Type II collagen solution (2 mg/mL) was prepared with 0.05 M acetic acid solution to allow to be fully dissolved, and placed overnight in the dark at 4° C. During the test, 2 mg/mL type II collagen (C II) solution and 4 mg/mL complete Freund's adjuvant (CFA) solution were mixed in equal volumes under ice bath conditions to fully emulsify. On day 0, an emulsion prepared by mixing equal volumes of C II (2 mg/mL) and CFA (4 mg/mL) was injected intracutaneously into the base of the tail of experimental rats for primary immunization, and on day 7, secondary booster immunization was performed.
The therapeutic effect of the test compound was tested in a rat CIA model. The rats were randomly divided into groups with 8 animals in each group. All animals were immunized on day 0 and boosted on day 7.
Foot volume was scored for the swelling of four toes at the same time, the score for each foot was 0-4, and the highest score for each rat was 16. 0—no swelling, normal appearance; 1—mild swelling or redness of the ankle joint, wrist joint or finger joint; 2—moderate swelling or redness of the ankle joint, wrist joint or finger joint; 3—severe swelling or redness of the ankle joint, wrist joint or finger joint; 4—very severe swelling or redness of the ankle joint, wrist joint or finger joint.

[2] = tested on: Salmonella TA98, TA100, TA1535, TA1537 and Escherichia coli; assay: Reverse mutation test (Ames test); set-up: species or system Salmonella typhimurium; conditions: non-metabolic activation conditions and activation conditions (-S9/+S9)
Protocol: Salmonella TA98, TA100, TA1535, TA1537 and Escherichia coli were used as test strains (strain source: Molecular Toxicology, Inc.). Ames test was performed under non-metabolic activation conditions and activation conditions to investigate whether the compounds according to the present invention have gene mutation inducing properties.
The cryopreserved strains were resuscitated, inoculated into nutrient broth medium and cultured in a 37° C. constant temperature shaker at 100 to 120 rpm for 11 h. The bottom agar medium (containing an appropriate amount of agar, V-B buffer, 20% glucose solution, 20% magnesium sulfate solution) was poured into a dish to cool for later use. […] The cultured plate was removed, counted and compared with the DMSO group for evaluation. If the average number of reverted colonies is twice or more than the number of reverted colonies in the negative control group (which can be regarded as spontaneous reverted number) (TA1535: 3 times or more) and there is a dose-effect relationship, the result is positive, and the test sample can be determined to be a mutagenic agent. […]

[3] = molecular target: T1, humanether-a-go-go related gene (hERG) channels (Homo sapiens, UniProt Q12809); assay: hERG test, patch clamp in HEK293 cells; type: cell-based; conditions: HEK293 cells expressing hERG, tail current
T1 construct: expressed in transfected cells; host or cells: HEK293
T1 sequence (Q12809 whole entry): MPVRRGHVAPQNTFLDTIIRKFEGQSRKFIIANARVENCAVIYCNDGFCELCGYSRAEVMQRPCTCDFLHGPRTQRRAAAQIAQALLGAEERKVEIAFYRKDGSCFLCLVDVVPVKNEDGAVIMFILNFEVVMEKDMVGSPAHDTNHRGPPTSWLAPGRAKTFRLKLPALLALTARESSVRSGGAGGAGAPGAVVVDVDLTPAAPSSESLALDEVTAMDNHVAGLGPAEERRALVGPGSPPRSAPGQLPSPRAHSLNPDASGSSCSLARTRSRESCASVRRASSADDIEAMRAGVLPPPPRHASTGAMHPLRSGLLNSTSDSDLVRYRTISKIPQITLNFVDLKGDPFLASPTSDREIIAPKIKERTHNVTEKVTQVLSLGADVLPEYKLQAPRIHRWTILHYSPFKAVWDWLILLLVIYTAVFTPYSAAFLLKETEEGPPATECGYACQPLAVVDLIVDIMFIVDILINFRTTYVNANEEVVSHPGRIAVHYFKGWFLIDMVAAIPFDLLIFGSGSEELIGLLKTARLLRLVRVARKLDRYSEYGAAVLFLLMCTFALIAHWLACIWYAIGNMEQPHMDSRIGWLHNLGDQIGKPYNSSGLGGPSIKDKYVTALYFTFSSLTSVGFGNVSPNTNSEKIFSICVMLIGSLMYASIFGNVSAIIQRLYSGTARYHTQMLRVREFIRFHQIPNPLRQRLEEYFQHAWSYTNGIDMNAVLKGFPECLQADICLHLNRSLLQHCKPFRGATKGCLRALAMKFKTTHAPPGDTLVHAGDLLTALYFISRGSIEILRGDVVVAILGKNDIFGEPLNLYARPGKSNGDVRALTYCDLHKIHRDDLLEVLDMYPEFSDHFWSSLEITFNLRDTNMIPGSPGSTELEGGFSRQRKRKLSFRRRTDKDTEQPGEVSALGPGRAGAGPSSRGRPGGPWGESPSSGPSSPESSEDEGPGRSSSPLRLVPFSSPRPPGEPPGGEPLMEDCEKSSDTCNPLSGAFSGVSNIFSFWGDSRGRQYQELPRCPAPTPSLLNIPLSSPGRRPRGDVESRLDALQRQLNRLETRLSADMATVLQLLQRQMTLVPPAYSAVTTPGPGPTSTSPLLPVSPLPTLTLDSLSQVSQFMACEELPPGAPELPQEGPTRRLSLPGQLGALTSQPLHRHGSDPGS
Description: For the purpose of evaluating the risk of prolonged QT interval in ECG of the compound according to the present invention, HEK293 cells expressing humanether-a-go-go related gene (hERG) channels were used to study the effect of the compound according to the present invention on the delayed rectifier K+ current (Ikr) playing an important role in ventricular repolarization.
The cells are maintained at −80 mV using a fully automatic patch clamp system (patch clamp PC-505B (WARNER instruments)) through a fully automatic patch clamp method, and then depolarized to 40 mV with a square wave lasting 4 s and hyperpolarized to −40 mV with a square wave lasting 2 s to obtain the hERG tail current. The maximum current induced by the second square wave was detected. After this current was stabilized, the test compound was perfused. After the reaction was stabilized, the blocking strength was calculated.
Extracellular fluid (mM): NaCl, 137; KCl, 4; CaCl2, 1.8; MgCl2, 1; HEPES, 10; glucose 10; pH 7.4 (NaOH titration). Intracellular fluid (mM): K Aspartate, 130; MgCl2, 5; EGTA 5; HEPES, 10; Tris-ATP 4; pH 7.2 (KOH titration).

[4] = Stability of liver microsomes; type: in vitro ADME; conditions: 10 umol/L
Protocol: Liver microsomes belonging to different species (human, rat) were respectively reacted with the compound according to the present invention for a certain period of time, and the residual rate was calculated by comparing a reacted sample with an unreacted sample, and the extent to which the compounds according to the present invention were metabolized by the liver was evaluated.

[5] = Pharmacokinetic study; type: in vivo; conditions: rat, plasma; rats, oral, 1-10 mg/kg
Protocol: For the intravenous route and the oral route, the compound was formulated in an aqueous solution containing 5% DMSO+95% hydroxypropyl-β-cyclodextrin. Test animals were administered orally at 1-10 mg/kg and intravenously at 1-5 mg/kg. Each group included 3 rats. About 0.2 mL of blood was collected by jugular vein puncture with heparin sodium anticoagulant at the following time points: 0.083 h, 0.25 h, 0.5 h, 1 h, 2 h, 4 h, 6 h, 8 h, 10 h and 24 h. Plasma was separated by centrifugation at 5000-13000 rpm for 10 min within 1 hour after collecting the blood sample, and the plasma sample was analyzed on LC-MS/MS.
The pharmacokinetic parameters were calculated using Phoenix WinNonlin 7.0 based on blood drug concentration data at different time points to provide parameters such as AUC0-t, AUC0-∞, MRT0-∞, Cmax, Tmax, and T1/2.

O=C(Nc1cn2c(-c3ccc(CN4CCS(=O)(=O)CC4)s3)cccc2n1)[C@H]1C[C@@H]1F (relative stereo) [EXP-3, trans-N-[5-[5-[(1,1-dioxo-1,4-thiazin-4-yl)methyl]-2-thiophene]imidazo[1,2-a]pyridin-2-yl]-2-fluoro-cyclopropylcarboxamide]
Arthritis index/Day ([1]; 2 mg/kg oral gavage once daily for 2 w, day 0): 0 ± 0 | Arthritis index/Day ([1]; 2 mg/kg oral gavage once daily for 2 w, day 8): 0 ± 0 | Arthritis index/Day ([1]; 2 mg/kg oral gavage once daily for 2 w, day 11): 0.50 ± 0.33 | Arthritis index/Day ([1]; 2 mg/kg oral gavage once daily for 2 w, day 14): 3.63 ± 0.91 | Arthritis index/Day ([1]; 2 mg/kg oral gavage once daily for 2 w, day 17): 6.25 ± 1.36 | Arthritis index/Day ([1]; 2 mg/kg oral gavage once daily for 2 w, day 21): 9.00 ± 1.24 | Arthritis index/Day ([1]; 2 mg/kg oral gavage once daily for 2 w, day 24): 9.13 ± 1.04 | Arthritis index/Day ([1]; 2 mg/kg oral gavage once daily for 2 w, day 28): 8.63 ± 0.63 | Arthritis index/Day ([1]; 3 mg/kg oral gavage once daily for 2 w, day 0): 0 ± 0 | Arthritis index/Day ([1]; 3 mg/kg oral gavage once daily for 2 w, day 8): 0 ± 0 | Arthritis index/Day ([1]; 3 mg/kg oral gavage once daily for 2 w, day 11): 0.38 ± 0.18 | Arthritis index/Day ([1]; 3 mg/kg oral gavage once daily for 2 w, day 14): 3.75 ± 0.70 | Arthritis index/Day ([1]; 3 mg/kg oral gavage once daily for 2 w, day 17): 6.25 ± 0.75 | Arthritis index/Day ([1]; 3 mg/kg oral gavage once daily for 2 w, day 21): 10.25 ± 0.70 | Arthritis index/Day ([1]; 3 mg/kg oral gavage once daily for 2 w, day 24): 10.88 ± 0.44 | Arthritis index/Day ([1]; 3 mg/kg oral gavage once daily for 2 w, day 28): 9.25 ± 0.45 | Arthritis index/Day ([1]; 5 mg/kg oral gavage once daily for 2 w, day 0): 0 ± 0 | Arthritis index/Day ([1]; 5 mg/kg oral gavage once daily for 2 w, day 8): 0 ± 0 | Arthritis index/Day ([1]; 5 mg/kg oral gavage once daily for 2 w, day 11): 0.63 ± 0.26 | Arthritis index/Day ([1]; 5 mg/kg oral gavage once daily for 2 w, day 14): 3.50 ± 0.76 | Arthritis index/Day ([1]; 5 mg/kg oral gavage once daily for 2 w, day 17): 5.88 ± 1.22 | Arthritis index/Day ([1]; 5 mg/kg oral gavage once daily for 2 w, day 21): 9.00 ± 1.22 | Arthritis index/Day ([1]; 5 mg/kg oral gavage once daily for 2 w, day 24): 9.13 ± 1.04 | Arthritis index/Day ([1]; 5 mg/kg oral gavage once daily for 2 w, day 28): 8.00 ± 0.65 | arthritis index, relative effect on swelling of the extremities in words ([1]; 10 mg/kg): strongest effect on reducing swelling of the extremities | Arthritis index/Day ([1]; 10 mg/kg oral gavage once daily for 2 w, day 0): 0 ± 0 | Arthritis index/Day ([1]; 10 mg/kg oral gavage once daily for 2 w, day 8): 0 ± 0 | Arthritis index/Day ([1]; 10 mg/kg oral gavage once daily for 2 w, day 11): 0.38 ± 0.38 | Arthritis index/Day ([1]; 10 mg/kg oral gavage once daily for 2 w, day 14): 3.75 ± 0.70 | Arthritis index/Day ([1]; 10 mg/kg oral gavage once daily for 2 w, day 17): 5.00 ± 0.89 | Arthritis index/Day ([1]; 10 mg/kg oral gavage once daily for 2 w, day 21): 6.50 ± 0.50 | Arthritis index/Day ([1]; 10 mg/kg oral gavage once daily for 2 w, day 24): 7.25 ± 0.56 | Arthritis index/Day ([1]; 10 mg/kg oral gavage once daily for 2 w, day 28): 7.25 ± 0.41 | Ames test result [2]: negative | IC50 [3]: > 10 µM | residual rate of the compound in oxidative metabolism ([4]; human liver microsomes): 59.32% | residual rate of the compound in oxidative metabolism ([4]; rat liver microsomes): 55.3%

O=C(Nc1nc2cccc(-c3ccc(CN4CCS(=O)(=O)CC4)s3)n2n1)C1CC1 [EXP-1]
AUC [5]: 12000 ng·h/mL | Cmax [5]: 2630 ng/mL | half-life [5]: 2.68 h
